Structures can show the parent of a compound that is named as a salt.
What was measured:
[1] = Antiproliferative activity against human ER-positive MCF7 cells measured after 48 hrs by MTT assay; format: functional, cell-based; conditions: MCF7, 48 h
[2] = Antiproliferative activity against human MCF7/ADR cells measured after 48 hrs by MTT assay; format: functional, cell-based; conditions: NCI/ADR-RES
[3] = Antiproliferative activity against human ER-triple negative MDA-MB-468 cells measured after 48 hrs by MTT assay; format: functional, cell-based; conditions: MDA-MB-468, 48 h
[4] = Antiproliferative activity against human MDA-MB-231 cells measured after 48 hrs by MTT assay; format: functional, cell-based; conditions: MDA-MB-231, 48 h
[5] = Antiproliferative activity against human K562 cells after 72 hrs by MTT assay; format: functional, cell-based; conditions: K562, 72 h
[6] = Antiproliferative activity against human CaEs17 cells after 72 hrs by MTT assay; format: functional, cell-based; conditions: CaEs17, 72 h
[7] = Antiproliferative activity against human […] cells after 72 hrs by MTT assay; format: functional, cell-based
[8] = Antiproliferative activity against human MGC803 cells after 72 hrs by MTT assay; format: functional, cell-based; conditions: MGC-803, 72 h
[9] = Antiproliferative activity against human MCF7 cells; format: functional, cell-based
[10] = Antiproliferative activity against human MDA-MB-231 cells; format: functional, cell-based
[11] = Cytotoxicity against human K562 cells by MTT assay; format: functional, cell-based
[12] = Toxicity in iv dosed Sprague-Dawley rat administered qd for 28 days; format: organism-based; conditions: in vivo
MDA-MB-231 = assay: Potency index, ratio of Oridonin EC50 to compound EC50 for human MDA-MB-231; format: functional
[13] = Antiproliferative activity against human […] cells after 24 hrs by MTT assay; format: functional, cell-based
[14] = Antitumor activity against H22 cells xenografted in ICR mouse assessed as tumor growth inhibition at 20 mg/kg/day, ip administered for 4 consecutive days relative to control; format: functional; conditions: read-out: TGI
[15] = Antitumor activity against human MGC803 cells xenografted in ICR mouse assessed as tumor growth inhibition at 40 mg/kg/day, ip for 25 consecutive days relative to control; format: functional; conditions: MGC-803, ip, read-out: TGI

Compound	EC50 [1]	EC50 [2]	EC50 [3]	EC50 [4]	EC50 [5]	EC50 [7]	other results
C=C1C(=O)[C@@]23[C@@H]4OC(C)(C)O[C@@]25OC[C@]2(C6=C(CC[C@H](OCC(C)C)O6)CC(C)(C)[C@H]2[C@@H]5O)[C@@H]3CC[C@@H]14	2.2 µM	4.4 µM	2.6 µM	1.8 µM			
COc1cccc2c1C(=O)c1c(O)c3c(c(O)c1C2=O)C[C@@](O)(C(=O)CO)C[C@@H]3O[C@H]1C[C@H](N)[C@H](O)[C@H](C)O1 [DOXORUBICIN HYDROCHLORIDE]	0.7 µM	> 10 µM	0.7 µM	2.3 µM			
C=C1C(=O)[C@@]23C(=O)O[C@H]4CCC(C)(C)[C@H]5[C@H](O)OC[C@@]45[C@@H]2CC[C@@H]1[C@H]3OC(=O)c1ccccc1Cl					0.22 µM	0.85 µM	EC50 [6]: 0.6 µM; EC50 [8]: 0.8 µM
C=C1C(=O)[C@]23[C@H](O)[C@H]1CC[C@H]2[C@@]12CO[C@@]3(O)[C@@H](O)[C@@H]1C(C)(C)Cc1sc(NC(=N)N)nc12							EC50 [9]: 3.4 µM; EC50 [10]: > 10 µM
CC(=O)[C@@H]1CC[C@H]2[C@@]34CO[C@@]5(O)[C@@H](OC(=O)[C@]25[C@@H]1O)[C@@H]3C(C)(C)CC[C@@H]4O							EC50 [11]: 18.5 µM
C=C1C(=O)[C@]23[C@H](O)[C@H]1CC[C@H]2[C@@]12CO[C@@]3(O)[C@@H](O)[C@@H]1C(C)(C)Cc1sc(NC)nc12							EC50 [9]: 1.3 µM; EC50 [10]: 2.1 µM
C=C1C(=O)[C@@]23C(=O)O[C@H]4CCC(C)(C)[C@H]5C(=O)OC[C@@]45[C@@H]2CC[C@@H]1[C@H]3OC(=O)c1ccc(Cl)cc1					0.14 µM	0.89 µM	EC50 [6]: 0.34 µM; EC50 [8]: 0.34 µM
C=C1C(=O)[C@]23[C@H](O)[C@H]1CC[C@H]2[C@@]12CO[C@@]3(O)[C@@H](O)[C@@H]1C(C)(C)Cc1sc(N3CCCCCC3)nc12							EC50 [9]: 1.2 µM; EC50 [10]: 6.8 µM
C=CCO[C@H]1CCC2=C(O1)[C@@]13CO[C@@]4(OC(C)(C)O[C@@H]5[C@H]6CC[C@@H]1[C@]54C(=O)C6=C)[C@@H](O)[C@@H]3C(C)(C)C2	4.3 µM	4.3 µM	4.9 µM	7.1 µM			
C=C1C(=O)[C@]23[C@H](O)[C@H]1CC[C@H]2[C@@]12CO[C@@]3(O)[C@@H](O)[C@@H]1C(C)(C)Cc1sc(NC3CCCCC3)nc12							EC50 [9]: 0.9 µM; EC50 [10]: 0.8 µM
C=C1C(=O)[C@]23[C@H](OC(=O)c4ccccc4C(=O)OCCCOc4no[n+]([O-])c4S(=O)(=O)c4ccccc4)[C@H]1CC[C@H]2[C@@]12CO[C@@]3(O)[C@@H](O)[C@@H]1C(C)(C)CC[C@@H]2O					1.82 µM	0.86 µM	
C=C1C(=O)[C@@]23[C@@H]4OC(C)(C)O[C@@]25OC[C@]2(C6=C(CC[C@H](OCC)O6)CC(C)(C)[C@H]2[C@@H]5O)[C@@H]3CC[C@@H]14	3.5 µM	4.7 µM	5.4 µM	6.1 µM			
C=C1C(=O)[C@]23[C@H](OC(=O)[C@H](C)N)[C@H]1CC[C@H]2[C@@]12CO[C@@]3(O)[C@@H](O)[C@@H]1C(C)(C)CC[C@@H]2O.O=C(O)C(F)(F)F							NOAEL at 672 h [12]: 40 mg/kg
C=C1C(=O)[C@@]23[C@@H]4OC(C)(C)O[C@@]25OC[C@]2(C6=C(CC[C@@H](OCCCl)O6)CC(C)(C)[C@H]2[C@@H]5O)[C@@H]3CC[C@@H]14	6.8 µM	8.7 µM	7.3 µM	7.2 µM			
C=C1C(=O)[C@]23[C@H](O)[C@H]1CC[C@H]2[C@@]12CO[C@@]3(O)[C@@H](O)[C@@H]1C(C)(C)Cc1sc(NC(C)=O)nc12							EC50 [9]: 2 µM; EC50 [10]: 6.8 µM
C=C1C(=O)[C@@]23C(=O)O[C@H]4CCC(C)(C)[C@H]5C(=O)OC[C@@]45[C@@H]2CC[C@@H]1[C@H]3OC(=O)c1ccccc1Cl					0.26 µM	0.72 µM	EC50 [6]: 0.28 µM; EC50 [8]: 0.82 µM
C=CCNc1nc2c(s1)CC(C)(C)[C@H]1[C@H](O)[C@]3(O)OC[C@@]21[C@@H]1CC[C@H]2C(=C)C(=O)[C@]13[C@@H]2O							EC50 [9]: 0.2 µM; Ratio EC50 (MDA-MB-231): 147; EC50 [10]: 0.2 µM
C=C1C(=O)[C@]23[C@H](O)[C@H]1CC[C@H]2[C@@]12CO[C@@]3(O)[C@@H](O)[C@@H]1C(C)(C)Cc1sc(NCCCC)nc12							EC50 [9]: 0.6 µM; EC50 [10]: 1.1 µM

Compound	EC50 [1]	EC50 [2]	EC50 [3]	EC50 [4]	EC50 [5]	EC50 [7]	other results
C=C1C(=O)[C@@]23C(=O)O[C@H]4CCC(C)(C)[C@H]5C(=O)OC[C@@]45[C@@H]2CC[C@@H]1[C@H]3OC(C)=O					0.35 µM	1.37 µM	EC50 [6]: 0.69 µM; EC50 [8]: 1.27 µM
C=C1C(=O)[C@]23[C@H](O)[C@H]1CC[C@H]2[C@@]12CO[C@@]3(O)[C@@H](O)[C@@H]1C(C)(C)Cc1sc(N(C)C)nc12							EC50 [9]: 0.8 µM; EC50 [10]: 0.3 µM
C=C1C(=O)[C@@]23[C@@H]4OC(C)(C)O[C@@]25OC[C@]2(C6=C(CC[C@@H](OCC)O6)CC(C)(C)[C@H]2[C@@H]5O)[C@@H]3CC[C@@H]14	0.44 µM	1.6 µM	0.52 µM	0.54 µM			
C=C1C(=O)[C@@]23C(=O)O[C@H]4CCC(C)(C)[C@H]5C(=O)OC[C@@]45[C@@H]2CC[C@@H]1[C@H]3OC(=O)c1ccccc1					0.33 µM	0.79 µM	EC50 [6]: 0.81 µM; EC50 [8]: 0.46 µM
C=C1C(=O)[C@]23[C@H](O)[C@H]1CC[C@H]2[C@@]12CO[C@@]3(O)[C@@H](O)[C@@H]1C(C)(C)Cc1sc(NCCN3CCCCC3)nc12							EC50 [9]: 1 µM; EC50 [10]: 1.8 µM
C=C1C(=O)[C@@]23[C@@H]4OC(C)(C)O[C@@]25OC[C@]2(C6=C(CC[C@@H](OCC(C)C)O6)CC(C)(C)[C@H]2[C@@H]5O)[C@@H]3CC[C@@H]14	5.8 µM	10.3 µM	7 µM	8.2 µM			
C=C1C(=O)[C@@]23[C@@H]4OC(C)(C)O[C@@]25OC[C@]2(C6=C(CC[C@H](OCCCC)O6)CC(C)(C)[C@H]2[C@@H]5O)[C@@H]3CC[C@@H]14	2.4 µM	3.8 µM	3 µM	2.2 µM			
C=C1C(=O)[C@]23[C@H](OC(=O)CC(CCCCCCCCCCCC)C(=O)O)[C@H]1CC[C@H]2[C@@]12CO[C@@]3(O)[C@@H](O)[C@@H]1C(C)(C)CC[C@@H]2O (some centres undefined)							EC50 [13]: 2.06 µM; inhibition in vivo at 20 mg/kg/day [14]: 63.7%
C=C1C(=O)[C@]23[C@H](O)[C@H]1CC[C@H]2[C@@]12CO[C@@]3(O)[C@@H](O)[C@@H]1C(C)(C)Cc1sc(N)nc12							EC50 [9]: 1 µM; EC50 [10]: 3.2 µM
C=C1C(=O)[C@@]23C(=O)O[C@H]4CCC(C)(C)[C@H]5C(=O)OC[C@@]45[C@@H]2CC[C@@H]1[C@H]3OC(=O)c1cccnc1					1.74 µM	0.71 µM	inhibition in vivo at 40 mg/kg/day [15]: 64.8%; EC50 [6]: 3.54 µM; EC50 [8]: 1.16 µM
C=C1C(=O)[C@@]23[C@@H]4OC(C)(C)O[C@@]25OC[C@]2(C6=C(CC[C@@H](OCCCC)O6)CC(C)(C)[C@H]2[C@@H]5O)[C@@H]3CC[C@@H]14	2.4 µM	6.8 µM	5.8 µM	3.7 µM			
C=C1C(=O)[C@@]23C(=O)O[C@H]4CCC(C)(C)[C@H]5C(=O)OC[C@@]45[C@@H]2CC[C@@H]1[C@H]3OC(=O)c1ccc(C)cc1					0.52 µM	1.58 µM	EC50 [6]: 1.78 µM; EC50 [8]: 1.54 µM
C=C1C(=O)[C@@]23[C@@H]4OC(C)(C)O[C@@]25OC[C@]2(C6=C(CC[C@H](OCCCl)O6)CC(C)(C)[C@H]2[C@@H]5O)[C@@H]3CC[C@@H]14	2.3 µM	3.1 µM	3 µM	3.3 µM			
C=C1C(=O)[C@@]23C(=O)O[C@H]4CCC(C)(C)[C@H]5[C@H](O)OC[C@@]45[C@@H]2CC[C@@H]1[C@H]3OC(C)=O					1.11 µM	1.97 µM	EC50 [6]: 1.59 µM; EC50 [8]: 1.99 µM
C=CCO[C@@H]1CCC2=C(O1)[C@@]13CO[C@@]4(OC(C)(C)O[C@@H]5[C@H]6CC[C@@H]1[C@]54C(=O)C6=C)[C@@H](O)[C@@H]3C(C)(C)C2	2.1 µM	3.2 µM	4.4 µM	3.3 µM			
C=C1C(=O)[C@@]23[C@@H]4OC(C)(C)O[C@@]25OC[C@]2([C@@H](n6cc(-c7ccccc7)nn6)C=CC(C)(C)[C@H]2[C@@H]5O)[C@@H]3CC[C@@H]14				0.48 µM			Ratio EC50 (MDA-MB-231): 61
C=C1C(=O)[C@@]23C(=O)O[C@H]4CCC(C)(C)[C@H]5[C@H](O)OC[C@@]45[C@@H]2CC[C@@H]1[C@H]3OC(=O)c1ccccc1					0.21 µM	1.42 µM	EC50 [6]: 0.54 µM; EC50 [8]: 0.93 µM
C=C1C(=O)[C@@]23C(=O)O[C@H]4CCC(C)(C)[C@H]5[C@H](O)OC[C@@]45[C@@H]2CC[C@@H]1[C@H]3OC(=O)c1ccc(C)cc1					0.14 µM	1.01 µM	EC50 [6]: 0.45 µM; EC50 [8]: 0.61 µM

From ChEMBL document CHEMBL3865791, “Discovery and development of natural product oridonin-inspired anticancer agents” (Eur J Med Chem, 2016)
